According to US7947854B2, “Bis-cationic compounds and use thereof” (The University of Sydney, priority 2003, dated 2011):
In brackets after ≈: the same amount, converted by molar mass.

How the values were obtained:
Format in all cases: cell-based
[1] = tested on: Candida albicans ATCC 10231; assay: Antifungal susceptibility testing, microdilution MIC; conditions: Table 6; no visible growth after 48 h at 35° C.; read-out: MIC C. albicans ATCC 10231
Method in brief: (§1)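 Standard microdilution method, run in duplicate, using serial dilutions of cationic compounds.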

[2] = tested on: Cryptococcus neoformans ATCC 90112; assay: as above; conditions: Table 6; no visible growth after 72 h at 35° C.; read-out: MIC C. neof. ATCC 90112
Method in brief: as §1

[3] = tested on: Fusarium solani 04-132-4207; assay: In vitro antifungal activity, filamentous fungi, NCCLS M38-A
Text: (§2) The assay used for filamentous fungi (Aspergillus; Scedosporium; Fusarium) was that published by the National Committee for Clinical Laboratory Standards. 2002. Reference Method for Broth Dilution Antifungal Susceptibility Testing of Filamentous Fungi: Approved Standard. NCCLS document M38-A.Villanova, Pa., USA.

[4] = tested on: Aspergillus flavus ATCC 204 304; assay: as above
Text: as §2

[5] = tested on: Scedosporium prolificans 1-003-040; assay: as above
Text: as §2

[6] = tested on: Scedosporium apiospermum 1-003-056; assay: as above
Text: as §2

[7] = tested on: Aspergillus terreus ATCC 03-232-378; assay: as above
Text: as §2

[8] = tested on: Aspergillus fumigatus ATCC 204 305; assay: as above
Text: as §2

[9] = tested on: Candida albicans ATCC 10231; assay: In vitro antifungal activity, yeasts, NCCLS M27-A; conditions: Table 9
Text: (§3) The assay used for yeasts (Candida; Cryptococcus) is that of the National Committee for Clinical Laboratory Standards. 1997. Reference Method for Broth Dilution Antifungal Susceptibility Testing of Yeasts: Approved Standard. NCCLS document M27-A.Villanova, Pa., USA as published in Ghannoum, M. A., A. S. Ibrahim, Y. Fu, M. C. Shafiq, J. E Edwards, Jr. and R. S. Criddle. 1992. Susceptibility testing of Cryptococcus neoformans: A microdilution technique. J. Clin. Microbiol. 30:2881-2886.

[10] = tested on: Cryptococcus neoformans ATCC 90112; assay: In vitro antifungal activity, yeasts, NCCLS M27-A; conditions: Table 9
Text: as §3

MIC [1]: 1.1 µM (≈ 1.02 µg/mL)
MIC [2]: 0.55 µM (≈ 0.508 µg/mL)
MIC [3]: 0.27 µM (≈ 0.25 µg/mL)
MIC Fusarium solani 04-132-4207 [3]: 0.25 µg/mL (≈ 0.271 µM)
MIC [4]: 0.54 µM (≈ 0.499 µg/mL)
MIC Aspergillus flavus ATCC 204 304 [4]: 0.50 µg/mL (≈ 0.541 µM)
MIC [5]: 4.3 µM (≈ 3.97 µg/mL)
MIC Scedosporium prolificans 1-003-040 [5]: 4.0 µg/mL (≈ 4.33 µM)
MIC [6]: 0.54 µM (≈ 0.499 µg/mL)
MIC Scedosporium apiospermum 1-003-056 [6]: 0.50 µg/mL (≈ 0.541 µM)
MIC [7]: 1.1 µM (≈ 1.02 µg/mL)
MIC Aspergillus terreus ATCC 03-232-378 [7]: 1.0 µg/mL (≈ 1.08 µM)
MIC [8]: 0.54 µM (≈ 0.499 µg/mL)
MIC Aspergillus fumigatus ATCC 204 305 [8]: 0.50 µg/mL (≈ 0.541 µM)
MIC [9]: 0.54 µM (≈ 0.499 µg/mL)
MIC Candida albicans ATCC 10231 [9]: 0.50 µg/mL (≈ 0.541 µM)
MIC [10]: 0.54 µM (≈ 0.499 µg/mL)
MIC Cryptococcus neoformans ATCC 90112 [10]: 0.50 µg/mL (≈ 0.541 µM)
SMILES: C[C@@H]1[C@H](O)[C@@H](C)/C=C/C=C/C=C/C=C/C=C/C=C/C=C/[C@H](O[C@@H]2O[C@H](C)[C@@H](O)[C@H](N)[C@@H]2O)C[C@@H]2O[C@](O)(C[C@@H](O)C[C@@H](O)[C@H](O)CC[C@@H](O)C[C@@H](O)CC(=O)O[C@H]1C)C[C@H](O)[C@H]2C(=O)O [Amphotericin B, reference compound]
